The source of these data is US12201620B2, “Compositions and methods for treating chemotherapy resistant cancer” (The Brigham And Women's Hospital, Inc., priority 2016, dated 2025).

The test system of test [1] is Molm13 PPM1D-mutant and control single cell clones. In words: 72-hour cell viability analysis. The test is classed as cell-based, human. Particulars: for viability of PPM1D-mutant cells versus control cells in the presence of chemotherapeutic agent: 72 hours, increasing concentrations. On the procedure:
FIG. 2B provides immunoblots of whole cell lysates from Molm13 control cells (control), PPM1D-mutant pooled clones and PPM1D frame-shift (fs) mutant single cell clones probed with anti-PPM1D and anti-Actin. […] FIG. 2D is a plot depicting viability assays in Molm13 PPM1D-mutant or control single cells clones that were treated with increasing concentrations of cyclophosphamide for 72 hours. FIG. 2E is a plot depicting viability assays in Molm13 PPM1D-mutant or control single cells clones that were treated with increasing concentrations of cisplatin for 72 hours. […] FIG. 2G is a plot depicting flow cytometric readout of competition experiment with 5% pooled Molm13 PPM1D-mutant cells and 95% pooled Molm13 control cells exposed to 350 nM Cyclophosphamide or vehicle for 24 days. FIG. 2H is a plot depicting flow cytometric readout of competition experiment with 5% pooled Molm13 PPM1D-mutant cells and 95% pooled Molm13 control cells exposed to 1 μM Cisplatin or vehicle for 24 days. […] PPM1D and control sgRNAs were identified through their fluorophores.
The line represents the locally weighted scatterplot smoothing (LOESS) of 0.1. […] FIG. 8B is a vector map of the degradation reporter vector, with different PPM1D cDNA constructs inserted. FIG. 8C is a graph showing EGFP/mCherry ratio for Molm13 cells with overexpression of wild type PPM1D, truncated PPM1D or the C-terminal end of PPM1D. FIG. 8D is a graph showing EGFP/mCherry ratio for Molm13 p53^−/− cells with overexpression of wild type PPM1D, truncated PPM1D or the C-terminal end of PPM1D. FIG. 8E is a graph showing EGFP/mCherry ratio in Molm13 cells before and after exposure to MG132 (10 μM, 6 hours), normalized to pre-treatment values. FIG. 8F is a plot showing cell viability analysis in Molm13 control cells (control), Molm13 PPM1D truncating mutant cells (PPM1D mutant) and Molm13 cells with overexpression of wild-type PPM1D (WT overexpression). […] For all experiments the following apply: *=p<0.05, **=p<0.01, ***=p<0.001,****=p<0.0001
(§1) 72 hour cell viability analysis in Molm13 PPM1D-mutant and control single cell clones after exposure to increasing doses of GSK2830371. FIG. 10F is a graph showing percent Annexin V positive cells in cells treated with PPM1D inhibitor or vehicle. Annexin V staining and flow cytometric analysis of Molm13 PPM1D-mutant and control single cell clones exposed to 3 μM of GSK2830371. *=p<0.05, **=p<0.01, ***=p<0.001
To study the role of PPM1D mutations in chemotherapy resistance, mutations in PPM1D were induced using the CRISPR-Cas9 system. […] Using sequence verified PPM1D mutant (fs) and empty vector control Molm13 cells, the effects of mutant and wild type PPM1D in the response to DNA damaging chemotherapy were analyzed. […] (FIG. 1C).
(§2) To study the sensitivity of PPM1D truncating mutations to chemotherapy exposure, frame-shift mutations were introduced in the PPM1D gene in Molm13 AML cells, which are TP53 wild-type, using CRISPR-Cas9.

The test system of test [2] is Molm13 PPM1D-mutant pooled cells and control pooled cells. In words: In vitro competition experiment, PPM1D-mutant cells mixed with control cells. The class given is cell-based, human. The note with it: PPM1D mutant cells mixed with control cells. The protocol: FIG. 2B provides immunoblots of whole cell lysates from Molm13 control cells (control), PPM1D-mutant pooled clones and PPM1D frame-shift (fs) mutant single cell clones probed with anti-PPM1D and anti-Actin. […] FIG. 2D is a plot depicting viability assays in Molm13 PPM1D-mutant or control single cells clones that were treated with increasing concentrations of cyclophosphamide for 72 hours. FIG. 2E is a plot depicting viability assays in Molm13 PPM1D-mutant or control single cells clones that were treated with increasing concentrations of cisplatin for 72 hours. […] FIG. […] FIG. […] PPM1D and control sgRNAs were identified through their fluorophores.
as §1, §2

Test [3] relates to Molm13 PPM1D-mutant and control single cell clones. In words: Annexin V staining and flow cytometric analysis. The test is classed as cell-based, human. The note with it: 400 nM cytarabine, 24 hours.
Excerpt: FIG. 9E is a chart depicting the consensus sequence of PPM1D based on substrate analysis of 43 substrate candidates of PPM1D. FIG. 9F depicts 43 potential PPM1D substrate sites on pSer/Thr residues on 25 proteins. […] Only localized sites were considered. Figure discloses SEQ ID NOS 4-20 and 20-31, respectively, in order of appearance. FIG. 9G depicts a schema illustrating the components of the DNA-damage response pathway that are targeted by PPM1D in leukemia cells, based on the results from the phosphoproteomics analysis. Phospho-targets of PPM1D identified by mass spectrometry (FDR<0.1) are shown in bold. Predicted PPM1D target sites that were based on the identified consensus sequence with a glutamine at +1 and >2 acidic residues (p=3.595e-13, Fisher's exact test) are shown in italics.
as §1
Background: Flow cytometry measures light scatter and fluorescence of single cells or particles in a stream.

Test [4] has the same test system. Description: BrdU staining and flow cytometric analysis (cell cycle). The test is classed as cell-based, human. Particulars: 100 nM cytarabine, 24 hours.
Test [5] relates to PPM1D-mutant cells. In words: In vivo competition experiment in bone marrow chimeras treated with cytarabine. The note with it: mice. An excerpt:
FIG. 5 provides an experimental schema of an in vivo competition experiment. Bone marrow chimaeras were generated by transplanting Mx-Cre Cas9 cKit^+Cas9 cells transduced with a BFP-tagged sgRNA targeting exon 6 of PPM1D or a tRFP-tagged control sgRNA into lethally-irradiated syngeneic recipients in a 1:5 ratio.
PPM1D and control sgRNAs were identified through their fluorophores. […] […] PPM1D and control sgRNAs were identified through their fluorophores.
Whether PPM1D mutations confer resistance to chemotherapy in vivo was examined. In another experiment, bone marrow chimeras were generated using Mx-Cre Cas9 c-Kit^+ cells that were transduced with a BFP-tagged sgRNA targeting exon 6 of PPM1D or a tRFP-tagged control sgRNA and transplanted into lethally-irradiated syngeneic recipients in a 1:5 ratio (FIG. 5). Mice were treated with cytarabine or vehicle after hematopoietic reconstitution.

The test system of test [6] is PPM1D. In words: PPM1D degradation reporter (EGFP/mCherry ratio). The class given is cell-based, human. Particulars: Molm13 cells, MG132 10 μM, 6 hours. An excerpt: The line represents the locally weighted scatterplot smoothing (LOESS) of 0.1. Overlaid are frame-shift and non-sense mutations (black bars) identified in the blood cells of 29,562 persons as described in FIG. 2A. FIG. 8B is a vector map of the degradation reporter vector, with different PPM1D cDNA constructs inserted. FIG. 8C is a graph showing EGFP/mCherry ratio for Molm13 cells with overexpression of wild type PPM1D, truncated PPM1D or the C-terminal end of PPM1D. FIG. 8D is a graph showing EGFP/mCherry ratio for Molm13 p53^−/− cells with overexpression of wild type PPM1D, truncated PPM1D or the C-terminal end of PPM1D. FIG. 8E is a graph showing EGFP/mCherry ratio in Molm13 cells before and after exposure to MG132 (10 μM, 6 hours), normalized to pre-treatment values. […]
A reporter vector was generated in which wild-type PPM1D cDNA (wt), PPM1D truncation mutants, or the last 80 amino-acids (C-terminal region) were cloned in frame with GFP, so the level of expression of the PPM1D sequences could be monitored by GFP expression (FIG. 8B, Table 1).
The fluorescence level of mCherry, which is expressed following an IRES sequence, provided an internal control for vector expression in each cell. […]

“Also recorded” adds a separate entry of the source. Residues, ends and D or L forms follow the SMILES beside them. *: point of attachment. Cbz = O=C(OCc1ccccc1)*

`O=C1/C(=C/c2cccs2)CC/C1=C\c1cccs1` [CCT007093]: in test [1] (72 hour, increasing doses), the “sensitivity of PPM1D-mutant cells versus control cells to single agent PPM1D inhibitor, cell viability” value is listed as “increased sensitivity to treatment with the PPM1D inhibitor CCT007093 in comparison to wild-type (wt) control cells; also recorded: increased sensitivity to PPM1D inhibition with either compound in comparison to wild type control cells”.
With `N.N.[Cl][Pt][Cl]` [Cisplatin], the “viability of PPM1D-mutant cells versus control cells in the presence of chemotherapeutic agent” value in test [1] is “increased viability at 72 hours”.
Turning to `O=P1(N(CCCl)CCCl)NCCCO1` (stereo not drawn) [Cyclophosphamide], the “viability of PPM1D-mutant cells versus control cells in the presence of chemotherapeutic agent” value in test [1] is recorded as “increased viability at 72 hours”. Moreover, the “competitive advantage of PPM1D-mutant cells under chemotherapy” value in test [2] is listed as “PPM1D mutant cells had a competitive advantage”.
Regarding `Nc1ccn([C@@H]2O[C@H](CO)[C@@H](O)[C@@H]2O)c(=O)n1` [Cytarabine], the “viability of PPM1D-mutant cells versus control cells in the presence of chemotherapeutic agent” value was “increased resistance to Cytarabine in PPM1D mutant cells compared to empty vector controls; also recorded: resistance to treatment with Cytarabine” in test [1] and “increased viability at 72 hours” in test [1] (listed as cytarabine). Moreover, the “apoptosis of PPM1D-mutant versus control cells after chemotherapy, Annexin V staining” value in test [3] is “decreased apoptosis”. Moreover, the “competitive advantage of PPM1D-mutant cells under chemotherapy” value in test [2] was “PPM1D mutant cells had a competitive advantage”. Besides, the “progression to G2/M phase of PPM1D-mutant versus control cells after chemotherapy” value in test [4] is “increased progression to G2/M phase”. In test [5] (1:5 chimeras, several rounds of cytarabine), the “PPM1D-mutant cells in the peripheral blood after cytarabine treatment” value was “significant, selective increase of PPM1D-mutant cells in the peripheral blood”. The “PPM1D-mutant hematopoietic stem and progenitor cells in the bone marrow” value in test [5] (12 weeks, 3 rounds of cytarabine) is listed as “also increased”.
For the molecule `CC(C)C[C@@H](C=O)NC(=O)[C@H](CC(C)C)NC(=O)[C@H](CC(C)C)NC(=O)OCc1ccccc1` [MG132] (Cbz-Leu-Leu-Leu-aldehyde), the “degradation of PPM1D constructs (EGFP/mCherry ratio)” value in test [6] is “decreased degradation of wild-type and C-terminal PPM1D, but not of the truncating mutants”.
